Data on two compounds can be found in PMC7179128, “Characterizations and Assays of α-Glucosidase Inhibition Activity on Gallic Acid Cocrystals: Can the Cocrystals be Defined as a New Chemical Entity During Binding with the α-Glucosidase?” (Molecules, 2020).

Series [1] addresses α-glucosidase (Saccharomyces cerevisiae, UniProt P53341). Kind of series: α-glucosidase inhibitory activity in vitro (pNPG substrate, absorbance at 405 nm). It counts as biochemical. The note with it: in vitro inhibition rate, Figure 4.
Protocol: Briefly, accurately weighed α-glucosidase was dissolved in 0.1 mol∙L^−1 potassium phosphate buffer (pH 6.8) to produce 50 μL of enzyme solution with a concentration of 1.0 U∙mL^−1. Fifty microliters of enzyme solution and 50 μL of test sample were mixed in a well of a microtiter plate to incubate for 10 min at 37 °C. Three millimoles of pNPG in the same buffer was used as a substrate solution. After pre-incubation at 37 °C for 10 min, 50 μL of pNPG solution was added into above enzyme solution. The enzymatic reaction was allowed to proceed at 37 °C for 10 min, following the measurement of 4-nitrophenol absorbance at 405 nm on a microplate spectrophotometer. The solution without α-glucosidase was used as a blank. The solution without the test sample was used as a test. The solution without the test sample and α-glucosidase was used as a control.
IC50 values were obtained as the mean of three independent experiments, which were constructed by testing a series of concentrations (i.e., three curves were obtained, each in triplicate).
The nature of series [2]: Powder dissolution test in 0.1 mol∙L^−1 HCl. The note with it: after 25 min, 37 ± 0.5 °C. It counts as physicochemical. How it is done: Co., Ltd., Shanghai, China) at 25 °C in five different solutions (pH 1, 2, 4, 8 and water, respectively) using the shake-flask method. Excess sample was added in the solvent and the suspension was shaken for 72 h in an air bath. The suspension was filtered through a 0.45 μm Millipore filter. Then, the GA concentration was determined using HPLC (Agilent 1200, Santa Clara, CA, USA). […] Approximately 50 mg of the sample (here single GA and cocrystals equivalent to 50 mg of GA) were placed in 900 mL dissolution media. Four milliliters of the suspensions were taken at appropriate intervals and immediately replaced by 4 mL of fresh dissolution media. All samples were filtered through a 0.45 μm Millipore filter. The concentration of GA in all samples were determined by HPLC. All tests were repeated thrice. Bioavailability in vivo was assayed using SD rats. […] The intragastric suspensions were prepared by suspending GA or the cocrystal (equivalent to same amount of GA) in 5% sodium carboxymethyl cellulose. Thereafter, the intragastric suspensions were orally administered to the rats at a single dose of 50 mg∙kg^-1. An approximately 500 μL blood sample was obtained from the eye canthus and collected into 1.5 mL heparinized plastic centrifuge tubes at the set time point after intragastric administration. […] The pharmacokinetic parameters were calculated using DAS 2.0 software.

Series [3] can be described thus: Oral bioavailability / pharmacokinetics in SD rats. It counts as in vivo. The note with it: rat, single dose 50 mg∙kg^−1 (GA equivalent), n = 6, GA in plasma. How it is done:
Co., Ltd., Shanghai, China) at 25 °C in five different solutions (pH 1, 2, 4, 8 and water, respectively) using the shake-flask method. Excess sample was added in the solvent and the suspension was shaken for 72 h in an air bath. The suspension was filtered through a 0.45 μm Millipore filter. Then, the GA concentration was determined using HPLC (Agilent 1200, Santa Clara, CA, USA). […] Approximately 50 mg of the sample (here single GA and cocrystals equivalent to 50 mg of GA) were placed in 900 mL dissolution media. Four milliliters of the suspensions were taken at appropriate intervals and immediately replaced by 4 mL of fresh dissolution media. All samples were filtered through a 0.45 μm Millipore filter. The concentration of GA in all samples were determined by HPLC. All tests were repeated thrice. Bioavailability in vivo was assayed using SD rats. […] The intragastric suspensions were prepared by suspending GA or the cocrystal (equivalent to same amount of GA) in 5% sodium carboxymethyl cellulose. Thereafter, the intragastric suspensions were orally administered to the rats at a single dose of 50 mg∙kg^-1. An approximately 500 μL blood sample was obtained from the eye canthus and collected into 1.5 mL heparinized plastic centrifuge tubes at the set time point after intragastric administration. GA was extracted from plasma by protein precipitation. One hundred microliters of plasma was mixed with internal standard solution (20 μL) in the centrifuge tube; then, the solution of acetonitrile formic acid (2%, v/v) was added to precipitate the protein. […] Then, the supernatant was taken for determining the concentration of GA by the LC-MS/MS (MS:3200 QTRAP, AB SCIEX, MA, USA, LC: Agilent1200, Santa Clara, CA, USA) method. The blood concentration-time curve was drawn by taking blood sampling time as the horizontal coordinate and GA concentration as the vertical coordinate. The pharmacokinetic parameters were calculated using DAS 2.0 software.

α-glucosidase, sequence (P53341 whole entry): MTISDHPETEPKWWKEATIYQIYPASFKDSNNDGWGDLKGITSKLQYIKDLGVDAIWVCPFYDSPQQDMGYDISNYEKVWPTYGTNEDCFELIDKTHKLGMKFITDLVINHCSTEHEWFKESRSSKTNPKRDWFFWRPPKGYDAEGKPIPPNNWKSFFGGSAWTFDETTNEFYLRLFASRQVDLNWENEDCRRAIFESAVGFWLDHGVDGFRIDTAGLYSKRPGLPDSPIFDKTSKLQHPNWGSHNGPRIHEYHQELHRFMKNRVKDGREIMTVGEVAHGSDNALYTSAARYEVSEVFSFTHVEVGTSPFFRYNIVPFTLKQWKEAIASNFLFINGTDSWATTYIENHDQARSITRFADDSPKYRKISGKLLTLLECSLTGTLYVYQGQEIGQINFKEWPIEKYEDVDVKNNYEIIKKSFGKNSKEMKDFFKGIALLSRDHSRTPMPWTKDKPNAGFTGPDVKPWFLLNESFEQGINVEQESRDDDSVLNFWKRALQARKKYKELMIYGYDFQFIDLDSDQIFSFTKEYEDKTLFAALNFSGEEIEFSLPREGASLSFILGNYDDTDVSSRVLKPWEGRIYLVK

Turning to `O=C1CCC(=O)N1` [succinimide], the “α-glucosidase inhibitory activity (in words)” value in series [1] is “no inhibitory activity”.

As usually defined, the AUC(0-inf) is total exposure, with the tail of the curve extrapolated. A word on the AUC(0-t): it is the area under the concentration-time curve up to a stated or last time point. A word on the Cmax: it is the highest concentration seen after dosing. On to `O=C(O)c1cc(O)c(O)c(O)c1` [GA, gallic acid], for which the cumulative dissolution in series [2] is listed as 80%. In addition, in series [3], the AUC(0-inf) stood at 4200 ± 1200 ng·h/mL, the AUC(0-t) is 4100 ± 1200 ng·h/mL and the Cmax stood at 1500 ± 500 ng/mL.
